Tests used:
Measles = assay type: cell-based
Ebola virus = assay type: cell-based, Ebola Zaire
[1] = cited from earlier work

NC(=O)c1ncn([C@@H]2O[C@H](CO)[C@@H](O)[C@H]2O)n1 [Ribavirin]
Activity against measles infectivity (Measles): no activity | Effect on proliferation of Ebola virus (qRT-PCR cycle number) (Ebola virus): no measurable effect

C=C(C)C(=O)O [methacrylic acid]
pKa [1]: 6.5

C=CC(=O)O [acrylic acid]
pKa [1]: 4.5
